Source: ChEMBL document CHEMBL5226317, “Camptothecin's journey from discovery to WHO Essential Medicine: Fifty years of promise” (Eur J Med Chem, 2021)
Counter-ions that a name gives are not always drawn.

Experiments:
Type in all cases: functional, cell-based
HT-29 [1] = assay: Cytotoxicity against human HT-29 cells
A549 [2] = assay: Cytotoxicity against human A549 cells
HL-60 = assay: Anticancer activity against human HL-60 cells incubated for 48 hrs by MTT assay; details: HL-60, 48 h
HT-29 [3] = assay: Anticancer activity against human HT-29 cells incubated for 48 hrs by MTT assay; details: HT-29, 48 h
DU-145 = assay: Anticancer activity against human DU-145 cells incubated for 48 hrs by MTT assay; details: DU-145, 48 h
Jurkat = assay: Anticancer activity against human Jurkat cells incubated for 48 hrs by MTT assay
H322 = assay: Anticancer activity against human H322 cells incubated for 48 hrs by MTT assay; details: NCI-H322, 48 h
HepG2 [4] = assay: Anticancer activity against human HepG2 cells incubated for 48 hrs by MTT assay; details: HepG2, 48 h
HCT-116 = assay: Anticancer activity against human HCT-116 cells incubated for 48 hrs by MTT assay; details: HCT-116, 48 h
A549 [5] = assay: Anticancer activity against human A549 cells incubated for 48 hrs by MTT assay; details: A549, 48 h
NSCLC = assay: Cytotoxicity against human NSCLC cells
A549 [6] = assay: Cytotoxicity against human A549 cells incubated for 48 hrs by SpectraMax M5 microplate reader analysis; details: A549, 48 h
HeLa = assay: Antiproliferative activity against human HeLa cells incubated for 72 hrs
A-431 = assay: Antiproliferative activity against human A-431 cells incubated for 72 hrs; details: A-431, 72 h
NCI-H460 = assay: Antiproliferative activity against human NCI-H460 cells incubated for 72 hrs; details: NCI-H460, 72 h
MSTO-211H = assay: Antiproliferative activity against human MSTO-211H cells incubated for 72 hrs
[7] = Antiproliferative activity against human KB-VIN cells; details: KBVIN
KB [8] = assay: Antiproliferative activity against human KB cells measured after 72 hrs by colorimetric assay
A549 [9] = assay: Antiproliferative activity against human A549 cells measured after 72 hrs by colorimetric assay; details: A549, 72 h
[10] = Antiproliferative activity against human KB-VIN cells measured after 72 hrs by colorimetric assay; details: KBVIN
HCT-8 [11] = assay: Cytotoxicity against human HCT-8 cells
KB [12] = assay: Antiproliferative activity against human KB cells incubated for 48 hrs by CCK-8 assay
HCT-8 [13] = assay: Antiproliferative activity against human HCT-8 cells incubated for 48 hrs by CCK-8 assay; details: HCT-8, 48 h
SGC-7901 = assay: Antiproliferative activity against human SGC-7901 cells incubated for 48 hrs by CCK-8 assay; details: SGC-7901, 48 h
HepG2 [14] = assay: Antiproliferative activity against human HepG2 cells incubated for 48 hrs by CCK-8 assay; details: HepG2, 48 h
K562 = assay: Anticancer activity against human K562 cells incubated for 72 hrs by MTT assay; details: K562, 72 h
SW 1116 = assay: Anticancer activity against human SW 1116 cells incubated for 72 hrs by MTT assay; details: SW 1116, 72 h
U-251 = assay: Anticancer activity against human U-251 cells incubated for 72 hrs by MTT assay; details: U-251, 72 h
[15] = Anticancer activity against human SPCA1 cells incubated for 72 hrs by MTT assay; details: SPCA1, 72 h
SK-OV-3 = assay: Anticancer activity against human SK-OV-3 cells incubated for 72 hrs by MTT assay; details: SK-OV-3, 72 h
A549 [16] = assay: Cytotoxicity against human A549 cells incubated for 48 hrs by MTT assay; details: A549, 48 h
NCI-H520 = assay: Cytotoxicity against human NCI-H520 cells incubated for 48 hrs by MTT assay; details: NCI-H520, 48 h
[17] = Cytotoxicity against human NCI-H196 cells incubated for 48 hrs by MTT assay; details: NCI-H196, 48 h
NCI-H1299 = assay: Cytotoxicity against human NCI-H1299 cells incubated for 48 hrs by MTT assay; details: NCI-H1299, 48 h
SBC-5 = assay: Cytotoxicity against human SBC-5 cells incubated for 48 hrs by MTT assay; details: SBC-5, 48 h
SBC-3 = assay: Cytotoxicity against human SBC-3 cells incubated for 48 hrs by MTT assay; details: SBC-3, 48 h
KB [18] = assay: Antiproliferative activity against human KB cells
A549 [19] = assay: Antiproliferative activity against human A549 cells
MDA-MB-231 = assay: Antiproliferative activity against human MDA-MB-231 cells
MCF7 = assay: Antiproliferative activity against human MCF7 cells
[20] = Antiproliferative activity against human KB-VIN cells assessed as reduction in cell viability; details: KBVIN

Question: What does the source list for `CC[C@@](O)(C(=O)NCCN1CCOCC1)c1cc2n(c(=O)c1CO)Cc1c-2nc2ccccc2c1-c1ccccc1`?
Answer: IC50 (HT-29 [1]): 0.1 µM; IC50 (A549 [2]): 0.1 µM

Question: With `CC[C@@]1(O)C(=O)OCc2c1cc1n(c2=O)Cc2cc3cc(OCC(=O)OC(C)(C)C)ccc3nc2-1` as the compound, how does the IC50 (HL-60) read?
Answer: The IC50 was 0.04 µM.

Question: And the IC50 (HT-29 [3])?
Answer: Its IC50 is 0.07 µM.

Question: What about the IC50 (DU-145) of the same compound?
Answer: The IC50 was 0.06 µM.

Question: And the IC50 (Jurkat)?
Answer: Its IC50 is 0.04 µM.

Question: And the IC50 (H322)?
Answer: Its IC50 is 0.46 µM.

Question: What about the IC50 (HepG2 [4]) of the same compound?
Answer: Its IC50 is 0.16 µM.

Question: What about the IC50 (HCT-116) of the same compound?
Answer: The IC50 was 0.07 µM.

Question: And the IC50 (A549 [5])?
Answer: Its IC50 is 0.06 µM.

Question: Which EC50 (NSCLC) does the source give for `CC[C@@]1(O)C(=O)OCc2c1cc1n(c2=O)Cc2cc3cc4c(cc3nc2-1)OCO4` here?
Answer: The EC50 was 0.001 µM.

Question: What about the IC50 (A549 [6]) of the same compound?
Answer: Its IC50 is 0.083 µM.

Question: Which IC50 (HeLa) does the source give for `CC[C@@]1(O)C(=O)OCc2c1cc1n(c2=O)Cc2c-1nc1ccccc1c2CS` here?
Answer: The IC50 was 0.008 µM.

Question: What about the IC50 (A-431) of the same compound?
Answer: The IC50 was 0.11 µM.

Question: And the IC50 (NCI-H460)?
Answer: The IC50 was 0.027 µM.

Question: What about the IC50 (MSTO-211H; Homo sapiens, MSTO-211H, 72 h) of the same compound?
Answer: The IC50 was 0.00185 µM.

Question: What about the IC50 (MSTO-211H; msto-211h) of the same compound?
Answer: The IC50 was 0.0018 µM.

Question: For `CC[C@@]1(O)C(=O)OCc2c1cc1n(c2=O)Cc2cc3c(CN(C)C)c(O)ccc3nc2-1` [TOPOTECAN HYDROCHLORIDE], which IC50 [7] is on record?
Answer: The IC50 was 0.511 µM.

Question: With `CCc1c2c(nc3ccc(OC(=O)N4CCC(N5CCCCC5)CC4)cc13)-c1cc3c(c(=O)n1C2)COC(=O)[C@]3(O)CC` [IRINOTECAN] as the compound, how does the IC50 (A549 [6]) read?
Answer: The IC50 was 9.14 µM.

Question: With `CCc1c2c(nc3ccccc13)-c1cc3c(c(=O)n1C2)COC(=O)[C@]3(CC)OC(=O)CN/C(Cc1ccc(OC)cc1)=N\S(=O)(=O)c1ccc(C)cc1` as the compound, how does the IC50 (KB [8]) read?
Answer: Its IC50 is 0.142 µM.

Question: What about the IC50 (A549 [9]) of the same compound?
Answer: Its IC50 is 0.0314 µM.

Question: What about the IC50 [10] of the same compound?
Answer: Its IC50 is 0.026 µM.

Question: Which IC50 (Jurkat) does the source give for `CC[C@@]1(O)C(=O)OCc2c1cc1n(c2=O)Cc2cc3ccccc3nc2-1` [CAMPTOTHECIN] here?
Answer: Its IC50 is 0.1 µM.

Question: What does the source list for `CC[C@@]1(O)C(=O)OCc2c1cc1n(c2=O)Cc2cc3c(/C=C(\C)C(=O)OC)c(O)ccc3nc2-1`?
Answer: IC50 (HCT-8 [11]): 0.03 µM; IC50 (KB [12]): 0.73 µM; IC50 (HCT-8 [13]): 0.03 µM; IC50 (SGC-7901): 0.262 µM; IC50 (HepG2 [14]): 0.176 µM

Question: Which IC50 (KB [8]) does the source give for `CC[C@]1(OC(=O)CN/C(Cc2ccc(OC)cc2)=N\S(=O)(=O)c2ccc(C)cc2)C(=O)OCc2c1cc1n(c2=O)Cc2cc3ccccc3nc2-1` here?
Answer: The IC50 was 0.142 µM.

Question: What about the IC50 (A549 [9]) of the same compound?
Answer: Its IC50 is 0.0314 µM.

Question: And the IC50 [10]?
Answer: The IC50 was 0.026 µM.

Question: For `CC[C@@](O)(C(=O)NCCCN1CCOCC1)c1cc2n(c(=O)c1CO)Cc1c-2nc2ccccc2c1-c1ccccc1`, which IC50 (HT-29 [1]) is on record?
Answer: Its IC50 is 0.01 µM.

Question: What about the IC50 (A549 [2]) of the same compound?
Answer: The IC50 was 0.01 µM.

Question: Which IC50 (HT-29 [1]) does the source give for `CCc1c2c(nc3ccc(OC)cc13)-c1cc([C@@](O)(CC)C(=O)NCCCN3CCOCC3)c(CO)c(=O)n1C2` here?
Answer: The IC50 was 0.02 µM.

Question: What about the IC50 (A549 [2]) of the same compound?
Answer: The IC50 was 0.02 µM.

Question: For `CCc1c2c(nc3ccc(OC(=O)NC(CC(C)C)C(=O)O)cc13)-c1cc3c(c(=O)n1C2)COC(=O)[C@]3(O)CC` (stereo partly drawn), which IC50 (K562) is on record?
Answer: The IC50 was 1.62 µM.

Question: And the IC50 (SW 1116)?
Answer: Its IC50 is 0.091 µM.

Question: And the IC50 (U-251)?
Answer: The IC50 was 1.7 µM.

Question: And the IC50 [15]?
Answer: Its IC50 is 0.385 µM.

Question: And the IC50 (SK-OV-3)?
Answer: The IC50 was 0.001 µM.

Question: What does the source list for `CCc1c2c(nc3ccc(OCc4cn(C(COC(CO)CO)COC(CO)CO)nn4)cc13)-c1cc3c(c(=O)n1C2)COC(=O)[C@@]3(O)CC`?
Answer: IC50 (A549 [16]): 23 µM; IC50 (NCI-H520): 1.5 µM; IC50 [17]: 510 µM; IC50 (NCI-H1299): 1000 µM; IC50 (SBC-5): 4.8 µM; IC50 (SBC-3): 1.7 µM

Question: Which results are given for `CC[C@@]1(O)C(=O)OCc2c1cc1n(c2=O)Cc2c-1nc1ccccc1c2CN1CCN(C(=S)Nc2cccc3ccccc23)CC1`?
Answer: IC50 (KB [18]): 0.089 µM; IC50 [7]: 0.275 µM; IC50 (A549 [19]): 0.059 µM; IC50 (MDA-MB-231): 0.588 µM; IC50 (MCF7): 0.789 µM; IC50 [20]: 0.275 µM

Question: With `CC[C@@]1(O)C(=O)OCc2c1cc1n(c2=O)Cc2c-1nc1ccccc1c2CSSCc1c2c(nc3ccccc13)-c1cc3c(c(=O)n1C2)COC(=O)[C@]3(O)CC` as the compound, how does the IC50 (HeLa) read?
Answer: The IC50 was 0.009 µM.

Question: What about the IC50 (A-431) of the same compound?
Answer: The IC50 was 0.021 µM.

Question: What about the IC50 (NCI-H460) of the same compound?
Answer: Its IC50 is 0.006 µM.

Question: What about the IC50 (MSTO-211H; Homo sapiens, MSTO-211H, 72 h) of the same compound?
Answer: The IC50 was 0.0022 µM.

Question: And the IC50 (MSTO-211H; msto-211h)?
Answer: The IC50 was 0.002 µM.

Question: With `CC[C@@]1(OC(=O)CCC(=O)O[C@@H]2O[C@@H](C)[C@H](OC(C)=O)[C@@H](OC(C)=O)[C@H]2OC(C)=O)C(=O)OCc2c1cc1n(c2=O)Cc2cc3cc4c(cc3nc2-1)OCO4` as the compound, how does the IC50 (A549 [6]) read?
Answer: Its IC50 is 0.083 µM.
